Some results are limits rather than exact numbers.

As usually defined, the IC50 is the point on the concentration scale where inhibition reaches its midpoint.

The test has as its target T1, FAAH (Rattus norvegicus, UniProt P97612).
T1 construct: For the assay of FAAH activity in rat brain membrane (RBM) homogenates; tissue Charles River (animals); host or cells: rat whole brain, membrane fraction
T1 sequence (P97612 1-579): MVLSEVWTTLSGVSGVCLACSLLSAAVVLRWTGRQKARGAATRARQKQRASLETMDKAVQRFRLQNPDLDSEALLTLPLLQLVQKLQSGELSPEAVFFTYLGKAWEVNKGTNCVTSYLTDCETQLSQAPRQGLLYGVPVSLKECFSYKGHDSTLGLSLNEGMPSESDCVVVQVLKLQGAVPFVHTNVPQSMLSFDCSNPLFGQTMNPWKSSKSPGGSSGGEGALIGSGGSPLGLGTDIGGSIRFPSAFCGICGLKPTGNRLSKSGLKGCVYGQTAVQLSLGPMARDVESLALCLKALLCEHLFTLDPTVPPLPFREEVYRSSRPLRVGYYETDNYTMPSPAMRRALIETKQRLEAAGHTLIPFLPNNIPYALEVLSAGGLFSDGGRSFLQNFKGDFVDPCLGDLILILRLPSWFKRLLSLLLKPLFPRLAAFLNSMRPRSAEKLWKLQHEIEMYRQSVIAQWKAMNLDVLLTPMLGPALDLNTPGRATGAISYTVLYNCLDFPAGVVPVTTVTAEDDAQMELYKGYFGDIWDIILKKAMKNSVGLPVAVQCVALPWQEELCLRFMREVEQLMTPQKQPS
Briefly: FAAH inhibition, rat brain membrane homogenate assay. The class given is biochemical. To be noted: rat brain homogenate; average activity; read-out: Rat Brain Extract FAAH IC50. Here is the method: Adult rats (Charles River CD strain, female, 200 g) were anaesthetized with isofluorane and rapidly decapitated. Each brain was quickly removed and chilled in tubes (3 brains per tube) on ice. About 25 mL of “homogenization buffer” (20 mM HEPES buffer, pH 7.0, with 1 mM MgCl2) was added to 15 to 20 g of brain. The brains were homogenized on ice for 1 minute using an Omni GLH homogenizer (Omni International, Marietta, Ga.). The homogenates were then transferred to three centrifuge tubes and centrifuged at 36,500 g for 20 minutes at 4° C. The supernatant was discarded and each pellet was re-suspended in 25 mL homogenization buffer. The re-suspended material was again centrifuged (36,500 g, 20 minutes at 4° C.). Pellets were combined by re-suspension in 10 mL of homogenization buffer and incubated in a 37° C. water bath for 15 minutes. The tubes were then placed on ice for 5 minutes followed by centrifugation at 36,500 g for 20 minutes at 4° C. The supernatant was discarded and the membrane pellets were then re-suspended in 40 mL of “re-suspension buffer” (50 mM Tris-HCl buffer, pH 7.4, containing 1 mM EDTA and 3 mM MgCl2). A Bradford Protein assay was performed to determine protein concentration. The protein was aliquotted into screw cap Cryo tubes each containing −400 μL, flash-frozen in liquid nitrogen and stored at −80° C. until used for the assay. A similar protocol was used to obtain brain membrane homogenates from mice
FAAH activity was assayed in the respective homogenates described herein (Rat brain, Mouse brain or Human brain) with certain of the exemplary compounds described above using a modification of the method of Omeir et al. (1995 Life Sci. 56:1999) and Fowler et al. (1997 J. Pharmacol. Exp. Ther. 283:729). For the assay of FAAH activity in rat brain membrane (RBM) homogenates, RBM homogenates (7 μg protein in 20 μL final volume of 10 mM Tris pH 6.5) were mixed with 180 μL of a mixture of the following: […] unlabelled anandamide (AEA), 0.03 Ci radio labeled anandamide [ethanolamine 1-^3H](40-60 Ci/mmol; product number ART-626, American Radiolabelled Chemicals, St. Louis, Mo.), 1 mg/mL Bovine Serum Albumin (fatty acid-free BSA, electrophoresis grade, Sigma, St. Louis, Mo.), 10 mM Tris-HCl (pH 6.5), and 1 mM EDTA in the presence and absence of test compounds (vehicle was DMSO at a final concentration of 1%) and incubated for 10 minutes at 37° C. Samples were placed on ice to terminate the reactions.
The ^3H-ethanolamine product and un-reacted ^3H-anandamide substrate were then separated by either: (1) using chloroform/methanol extraction or (2) passing the reaction mixture through a glass fiber filter containing activated charcoal. Samples were extracted with chloroform/methanol by adding 0.4 mL of chloroform/methanol (1:1 v/v), vigorously mixing the samples, and separating the aqueous and organic phases by centrifugation. Radioactivity (corresponding to FAAH-catalyzed breakdown of ^3H-anandamide) found in aliquots (0.2 mL) of the aqueous phase was determined by liquid scintillation counting with quench correction. IC50 values were determined as described by Jonsson et al. (2001 Br. J Pharmacol. 133:1263). Alternatively, reactions were purified using a modification of the solid-phase extraction method described by Wilson et al (2003 Anal. Biochem. 318: 270). This method was modified as follows: after reactions were incubated at 37° C. for 10 minutes and chilled on ice, the reaction mixtures were acidified by adding 10 μL of sodium phosphate solution[0.5M (pH 2.0)]. Next, 90 μL aliquots of the acidified reaction mixtures were applied to activated charcoal (that had been previously washed with methanol as described by Wilson et al. (supra)) containing 80 μL of water on top of a glass fiber filter, centrifuged, and the radioactivity in the eluate was counted as described previously by Wilson et al. (supra). […]
As for `COc1cc(NC(=O)C(=O)c2c(C)n(Cc3ccc(Cl)cc3)c3cccc(OC)c23)ccn1` [Compound 45, 2-(1-(4-chlorobenzyl)-4-methoxy-2-methyl-1H-indol-3-yl)-N-(2-methoxypyridin-4-yl)-2-oxoacetamide], the IC50 is under 100 nM. Then `COc1ccc2c(c1)c(C(=O)C(=O)Nc1ccnc(OC)n1)c(C)n2Cc1ccc(Cl)cc1` [Compound 46, 2-(1-(4-chlorobenzyl)-5-methoxy-2-methyl-1H-indol-3-yl)-N-(2-methoxypyrimidin-4-yl)-2-oxoacetamide], with under 100 nM; and `COc1ccc2c(c1)c(C(=O)C(=O)Nc1cc(Cl)nc(OC)c1)c(C)n2Cc1ccc(Cl)cc1` [Compound 47, N-(2-chloro-6-methoxypyridin-4-yl)-2-(1-(4-chlorobenzyl)-5-methoxy-2-methyl-1H-indol-3-yl)-2-oxoacetamide], with under 100 nM. As to `COc1ccc2c(C(=O)C(=O)Nc3ccnc(OC)c3)c(C)n(Cc3ccc(Cl)cc3)c2c1` [Compound 48, 2-(1-(4-chlorobenzyl)-6-methoxy-2-methyl-1H-indol-3-yl)-N-(2-methoxypyridin-4-yl)-2-oxoacetamide], the IC50 was under 100 nM.

As for `COc1ccc2c(c1)c(C(=O)C(=O)Nc1ccnc(O)c1)c(C)n2Cc1ccc(Cl)cc1` [Compound 50, 2-(1-(4-chlorobenzyl)-5-methoxy-2-methyl-1H-indol-3-yl)-N-(2-hydroxypyridin-4-yl)-2-oxoacetamide], the 50% inhibitory concentration (IC50) fell in the range of 1000 to 10000 nM. Under `COc1cc(NC(=O)C(=O)c2c(C)n(Cc3ccc(Cl)cc3)c3c(OC)cccc23)ccn1` [Compound 51, 2-(1-(4-chlorobenzyl)-7-methoxy-2-methyl-1H-indol-3-yl)-N-(2-methoxypyridin-4-yl)-2-oxoacetamide] stands 1000 to 10000 nM. As for `COc1ccc2c(c1)c(C(=O)C(=O)Nc1ccnc(OC)c1Cl)c(C)n2Cc1ccc(Cl)cc1` [Compound 52, N-(3-chloro-2-methoxypyridin-4-yl)-2-(1-(4-chlorobenzyl)-5-methoxy-2-methyl-1H-indol-3-yl)-2-oxoacetamide], the IC50 was over 10000 nM.

Take `COc1ccc2c(c1)c(C(=O)C(=O)Nc1ccnc(OC)c1F)c(C)n2Cc1ccc(Cl)cc1` [Compound 53, 2-(1-(4-chlorobenzyl)-5-methoxy-2-methyl-1H-indol-3-yl)-N-(3-fluoro-2-methoxypyridin-4-yl)-2-oxoacetamide]: the IC50 was under 100 nM.

With `COc1ccc2c(c1)c(C(=O)C(=O)Nc1cc(OC)ncc1F)c(C)n2Cc1ccc(Cl)cc1` [Compound 54, 2-(1-(4-chlorobenzyl)-5-methoxy-2-methyl-1H-indol-3-yl)-N-(5-fluoro-2-methoxypyridin-4-yl)-2-oxoacetamide], the IC50 is under 100 nM. Turning to `COc1cc(NC(=O)C(=O)c2c(C)n(Cc3ccc(Cl)cc3)c3cc(Cl)c(OC)cc23)ccn1` [Compound 55, 2-(6-chloro-1-(4-chlorobenzyl)-5-methoxy-2-methyl-1H-indol-3-yl)-N-(2-methoxypyridin-4-yl)-2-oxoacetamide], the IC50 is under 100 nM. Consider `COc1cc(NC(=O)C(=O)c2c(C)n(Cc3ccc(Cl)cc3)c3ccc(OC)c(OC)c23)ccn1` [Compound 56, 2-(1-(4-chlorobenzyl)-4,5-dimethoxy-2-methyl-1H-indol-3-yl)-N-(2-methoxypyridin-4-yl)-2-oxoacetamide], for which the IC50 fell in the range of 1000 to 10000 nM. Under `COc1cc(NC(=O)C(=O)c2c(C)n(Cc3ccc(Cl)cc3)c3ccc(OC)c(Cl)c23)ccn1` [Compound 58, 2-(4-chloro-1-(4-chlorobenzyl)-5-methoxy-2-methyl-1H-indol-3-yl)-N-(2-methoxypyridin-4-yl)-2-oxoacetamide] stands 100 to 1000 nM; under `COc1cc(NC(=O)C(=O)c2c(C)n(Cc3ccc(Cl)cc3)c3ccc(OC)c(F)c23)ccn1` [Compound 59, 2-(1-(4-chlorobenzyl)-4-fluoro-5-methoxy-2-methyl-1H-indol-3-yl)-N-(2-methoxypyridin-4-yl)-2-oxoacetamide], under 100 nM; under `COc1cc(NC(=O)C(=O)c2c(C)n(Cc3ccc(Cl)cn3)c3cc(Cl)c(OC)cc23)ccn1` [Compound 60, 2-(6-chloro-1-((5-chloropyridin-2-yl)methyl)-5-methoxy-2-methyl-1H-indol-3-yl)-N-(2-methoxypyridin-4-yl)-2-oxoacetamide], under 100 nM. Under `COc1cc(NC(=O)C(=O)c2c(C)n(Cc3ccc(Cl)cn3)c3ccc(C)cc23)ccn1` [Compound 61, 2-(1-((5-chloropyridin-2-yl)methyl)-2,5-dimethyl-1H-indol-3-yl)-N-(2-methoxypyridin-4-yl)-2-oxoacetamide] stands under 100 nM; under `COc1cc(NC(=O)C(=O)c2c(C)n(Cc3ccc(Cl)cn3)c3ccc([N+](=O)[O-])cc23)ccn1` [Compound 62, 2-(1-((5-chloropyridin-2-yl)methyl)-2-methyl-5-nitro-1H-indol-3-yl)-N-(2-methoxypyridin-4-yl)-2-oxoacetamide], under 100 nM; under `COc1cc(NC(=O)C(=O)c2c(C)n(Cc3ccc(Cl)cn3)c3ccc(Cl)cc23)ccn1` [Compound 63, 2-(5-chloro-1-((5-chloropyridin-2-yl)methyl)-2-methyl-1H-indol-3-yl)-N-(2-methoxypyridin-4-yl)-2-oxoacetamide], under 100 nM. As to `COc1cc(NC(=O)C(=O)c2c(C)n(Cc3ccc(Cl)cn3)c3cc(F)c(OC)cc23)ccn1` [Compound 64, 2-(1-((5-chloropyridin-2-yl)methyl)-6-fluoro-5-methoxy-2-methyl-1H-indol-3-yl)-N-(2-methoxypyridin-4-yl)-2-oxoacetamide], the IC50 is under 100 nM. Under `COc1cc(NC(=O)C(=O)c2c(C)n(Cc3ccc(Cl)cn3)c3ccc(N)cc23)ccn1` [Compound 65, 2-(5-amino-1-((5-chloropyridin-2-yl)methyl)-2-methyl-1H-indol-3-yl)-N-(2-methoxypyridin-4-yl)-2-oxoacetamide] stands under 100 nM; under `COc1cc(NC(=O)C(=O)c2c(C)n(Cc3ccc(Cl)cn3)c3ccc(N(C)C)cc23)ccn1` [Compound 66, 2-(1-((5-chloropyridin-2-yl)methyl)-5-(dimethylamino)-2-methyl-1H-indol-3-yl)-N-(2-methoxypyridin-4-yl)-2-oxoacetamide], under 100 nM; under `COc1cc(NC(=O)C(=O)c2c(C)n(Cc3ccc(Cl)cn3)c3cc(OC)c(Cl)cc23)ccn1` [Compound 67, 2-(5-chloro-1-((5-chloropyridin-2-yl)methyl)-6-methoxy-2-methyl-1H-indol-3-yl)-N-(2-methoxypyridin-4-yl)-2-oxoacetamide], under 100 nM.

The values above are taken from patent US20150175599A1, “FAAH Inhibitors” (Ironwood Pharmaceuticals, Inc., priority 2010, published 2015).
